Patent publication US10143697B2, “Pharmaceutic composition comprising of HDAC inhibitor and a steroid and the use thereof” (VALCURIA AB, priority 2011, dated 2018)
Read-outs that look alike come from different tables or passages of the source.

Assays:
WSU-NHL cells [1] = assay: pretreatment with Trichostatin A or Belinostat, Prednisolone and CHOP, viability by trypan blue exclusion; conditions: for sensitization to CHOP-treatment: pretreatment with the HDAC inhibitor alone before CHOP
Experimental: Viability was assessed by trypan blue exclusion at indicated time points (n=3). Significant differences were evaluated using Student's unpaired t-test. All tests were two-sided. Effects were considered statistically significant at *P<0.05, **P<0.01, ***P<0.001.

WSU-NHL cells [2] = assay: pretreatment with VPA and prednisolone before CHOP, viability by trypan blue exclusion; format: cell-based
Description: Pretreatment with VPA before CHOP could theoretically increase the response to CHOP therapy through induction of DNA damage. However, VPA treatment could result in symptoms such as somnolence in a patient. These symptoms could be counteracted by simultaneous treatment with prednisolone. […] All tests were two-sided.

[3] = VPA serum concentration in patients; format: in vivo, human; conditions: 5 day VPA treatment for compassionate use as noted by the inventor
Experimental: (§1) The DLBCL cell lines SU-DHL-8 (Table 2A) and WSU-NHL (Table 2B) were treated for 72 hours with 0.5 mM or 1.5 mM VPA alone, or in combination with CHOP. The concentration of 0.5 mM VPA was chosen because it is a normal serum concentration during continuous VPA treatment in patients with epilepsy. The concentration of 1.5 mM VPA was chosen because it is the maximal tolerated serum concentration during 5 day VPA treatment for compassionate use as noted by the inventor.

[4] = continuous VPA treatment in patients with epilepsy; cited from earlier work
SU-DHL-8 = assay: cell viability time course by trypan blue exclusion, 0.5 mM or 1.5 mM VPA alone or with CHOP; format: cell-based; conditions: Homo sapiens, read-out: Viability (% of control cells day 1); for viability at 500 µM: SU-DHL-8, 0.5 mM VPA; for viability at 1500 µM: SU-DHL-8, 1.5 mM VPA
Experimental: as §1
(§2) The cell viability was assessed after 0 (Day 1), 24 (Day 2), 48 (Day 3) and 72 (Day 4) hours respectively, by trypan blue exclusion and normalised to untreated control cells. Data are presented as mean, n=3.
(§3) Treatment effects on viability were tested against the effects of CHOP treatment alone. […] All tests were two-sided. Effects were considered statistically significant at P<0.05 (*) and P<0.01 (**).
(§4) Viability (% of control cells day 1) are shown in Table 2A (SU-DHL-8) and Table 2B (WSU-NHL, n=3) respectively.

WSU-NHL = assay: as above; format: cell-based; conditions: Homo sapiens, read-out: Viability (% of control cells day 1); for viability at 500 µM: 0.5 mM VPA; for viability at 1500 µM: 1.5 mM VPA
Experimental: as §1, §2, §3, §4

WSU-NHL cells [5] = assay: Rituximab antibody-dependent cellular cytotoxicity (ADCC) with NK cells, dead target cells PKH26/7-AAD double positive; format: cell-based
Experimental: (§5) To estimate the impact of VPA on the antibody-dependent-cellular cytotoxicity (ADCC) induced by the CD20 antibody Rituximab. […]
(§6) NK cells were added as an effector to target cell ratio of 10:1, thereafter the cells were incubated for an additional 20 hours. Dead target cells were identified as double positive for PKH26 and 7-AAD and used as readout of the assay.

SU-DHL-8 cells [6] = assay: as above; format: cell-based
Experimental: as §5, §6

histone H3 = assay: acetylation of histone H3 by western blot analysis in DLBCL cell line model; format: cell-based; conditions: valproic acid at pharmacological concentrations
Karpas-422 cells = assay: cell viability by trypan blue exclusion after 72 hours, VPA alone or in combination with CHOP; format: cell-based; conditions: Homo sapiens, KARPAS-422, 72 h; for viability at 100 µM: 0.1 mM VPA; for viability at 2000 µM: 2 mM VPA; for viability at 10000 µM: 10 mM VPA
Experimental: (§7) The DLBCL cell lines WSU-NHL, Karpas-422, ULA, SU-DHL-5 and SU-DHL-8 cells were treated for 72 hours with three different concentrations (0.1 mM, 2 mM and 10 mM respectively) of valproic acid (VPA) alone, or in combination with CHOP. The CHOP regimen used in all examples consists of 10 μM cyclophosphamide monohydrate, 20 nM doxorubicin hydrochloride, 2 nM vincristine sulfate and 20 μg/ml prednisolone. (Ageberg, Rydström, Lindén, Linderoth, Jerkeman and Drott; Exp Cell Research; May 1; 317(8):1179-91).
(§8) The cell viability was assessed after 72 hours by trypan blue exclusion and normalised to untreated control cells at day 0 (seeding). Data are presented as mean±SEM, n=3.

WSU-NHL cells [7] = assay: as above; format: cell-based; conditions: Homo sapiens; for viability at 100 µM: 0.1 mM VPA; for viability at 2000 µM: 2 mM VPA; for viability at 10000 µM: 10 mM VPA
Experimental: as §7, §8

SU-DHL-8 cells [8] = assay: as above; format: cell-based; conditions: Homo sapiens, SU-DHL-8, 72 h; for viability at 100 µM: 0.1 mM VPA; for viability at 2000 µM: 2 mM VPA; for viability at 10000 µM: 10 mM VPA
Experimental: as §7, §8

SU-DHL-5 cells = assay: as above; format: cell-based; conditions: Homo sapiens, SU-DHL-5, 72 h; for viability at 100 µM: 0.1 mM VPA; for viability at 2000 µM: 2 mM VPA; for viability at 10000 µM: 10 mM VPA
Experimental: as §7, §8

ULA cells = assay: as above; format: cell-based; conditions: for viability at 100 µM: 0.1 mM VPA; for viability at 2000 µM: 2 mM VPA; for viability at 10000 µM: 10 mM VPA
Experimental: as §7, §8

[9] = 1.5 mM VPA for 24 hours before rituximab
[10] = Rituximab 0 μg/ml, +NK Cells + 1.5 mM VPA
[11] = Rituximab 0.1 μg/ml, +NK Cells + 1.5 mM VPA
[12] = Rituximab 0.1 μg/ml, +NK Cells + 1.5 mM VPA + CHOP
[13] = Rituximab 0.1 μg/ml, +NK cells + CHOP
[14] = Rituximab 1 μg/ml, +NK Cells + 1.5 mM VPA
[15] = Rituximab 1 μg/ml, +NK Cells + 1.5 mM VPA + CHOP
[16] = Rituximab 1 μg/ml, +NK cells + CHOP
[17] = Rituximab 10 μg/ml, +NK Cells + 1.5 mM VPA
[18] = Rituximab 10 μg/ml, +NK Cells + 1.5 mM VPA + CHOP
[19] = Rituximab 10 μg/ml, +NK cells + CHOP

O=C(/C=C/c1cccc(S(=O)(=O)Nc2ccccc2)c1)NO [Belinostat]
sensitization to CHOP-treatment (WSU-NHL cells [1]): sensitized DLBCL cell lines to CHOP-induced cell death

C[C@]12C=CC(=O)C=C1CC[C@@H]1[C@@H]2[C@@H](O)C[C@@]2(C)[C@H]1CC[C@]2(O)C(=O)CO [Prednisolone]
CHOP-induced cell death (WSU-NHL cells [2]; prednisolone (20 μg/ml) added to VPA pretreatment before CHOP, compared to pretreatment with VPA alone): further increases significantly CHOP-induced cell death
CHOP-induced cell death (WSU-NHL cells [1]; prednisolone (20 μg/ml) added to HDAC inhibitor pretreatment before CHOP): significantly increases CHOP-induced cell death

CC(/C=C/C(=O)NO)=C\[C@@H](C)C(=O)c1ccc(N(C)C)cc1 [TSA, Trichostatin A]
sensitization to CHOP-treatment (WSU-NHL cells [1]): sensitizes lymphoma cell lines to CHOP-treatment

CCCC(CCC)C(=O)O [VPA, valproic acid]
sensitization to CHOP-treatment (WSU-NHL cells [2]; pretreatment with VPA alone before CHOP): sensitizes lymphoma cell lines to CHOP-treatment
maximal tolerated serum concentration [3]: 1.5 mM
normal serum concentration [4]: 0.5 mM
viability at 500 µM (SU-DHL-8; Day 1 (0 hours)): 100%
viability at 500 µM (SU-DHL-8; Day 2 (24 hours)): 102%
viability at 500 µM (SU-DHL-8; Day 3 (48 hours)): 101%
viability at 500 µM (SU-DHL-8; Day 4 (72 hours)): 94%
viability at 1500 µM (SU-DHL-8; Day 1 (0 hours)): 100%
viability at 1500 µM (SU-DHL-8; Day 2 (24 hours)): 97%
viability at 1500 µM (SU-DHL-8; Day 3 (48 hours)): 64%
viability at 1500 µM (SU-DHL-8; Day 4 (72 hours)): 59%
viability at 500 µM (WSU-NHL; Day 1 (0 hours)): 100%
viability at 500 µM (WSU-NHL; Day 2 (24 hours)): 97%
viability at 500 µM (WSU-NHL; Day 3 (48 hours)): 99%
viability at 500 µM (WSU-NHL; Day 4 (72 hours)): 98%
viability at 1500 µM (WSU-NHL; Day 1 (0 hours)): 100%
viability at 1500 µM (WSU-NHL; Day 2 (24 hours)): 95%
viability at 1500 µM (WSU-NHL; Day 3 (48 hours)): 68%
viability at 1500 µM (WSU-NHL; Day 4 (72 hours)): 36%
effect on Rituximab induced ADCC (WSU-NHL cells [5]; [9]): does not affect Rituximab induced ADCC
percentage of dead cells, Mean (WSU-NHL cells [5]; [10]): 27%
effect on Rituximab induced ADCC (SU-DHL-8 cells [6]; [9]): does not affect Rituximab induced ADCC
percentage of dead cells, Mean (SU-DHL-8 cells [6]; [10]): 34%
acetylation of histone H3 (histone H3): increase in acetylation of histone H3
viability at 100 µM (Karpas-422 cells; +CHOP): 80%
viability at 100 µM (Karpas-422 cells; −CHOP): 100%
viability at 2000 µM (Karpas-422 cells; +CHOP): 67%
viability at 2000 µM (Karpas-422 cells; −CHOP): 102%
viability at 10000 µM (Karpas-422 cells; +CHOP): 21%
viability at 10000 µM (Karpas-422 cells; −CHOP): 21%
viability at 100 µM (WSU-NHL cells [7]; +CHOP): 63%
viability at 100 µM (WSU-NHL cells [7]; −CHOP): 99%
viability at 2000 µM (WSU-NHL cells [7]; +CHOP): 6%
viability at 2000 µM (WSU-NHL cells [7]; −CHOP): 29%
viability at 10000 µM (WSU-NHL cells [7]; +CHOP): 0%
viability at 10000 µM (WSU-NHL cells [7]; −CHOP): 1%
viability at 100 µM (SU-DHL-8 cells [8]; +CHOP): 55%
viability at 100 µM (SU-DHL-8 cells [8]; −CHOP): 105%
viability at 2000 µM (SU-DHL-8 cells [8]; +CHOP): 0%
viability at 2000 µM (SU-DHL-8 cells [8]; −CHOP): 67%
viability at 10000 µM (SU-DHL-8 cells [8]; +CHOP): 0%
viability at 10000 µM (SU-DHL-8 cells [8]; −CHOP): 0%
viability at 100 µM (SU-DHL-5 cells; +CHOP): 26%
viability at 100 µM (SU-DHL-5 cells; −CHOP): 124%
viability at 2000 µM (SU-DHL-5 cells; +CHOP): 1%
viability at 2000 µM (SU-DHL-5 cells; −CHOP): 53%
viability at 10000 µM (SU-DHL-5 cells; +CHOP): 0%
viability at 10000 µM (SU-DHL-5 cells; −CHOP): 0%
viability at 100 µM (ULA cells; +CHOP): 73%
viability at 100 µM (ULA cells; −CHOP): 105%
viability at 2000 µM (ULA cells; +CHOP): 52%
viability at 2000 µM (ULA cells; −CHOP): 52%
viability at 10000 µM (ULA cells; +CHOP): 42%
viability at 10000 µM (ULA cells; −CHOP): 50%

Rituximab: the CD20 antibody Rituximab
percentage of dead cells, Mean (WSU-NHL cells [5]; [11]): 40%
percentage of dead cells, Mean (WSU-NHL cells [5]; [12]): 60%
percentage of dead cells, Mean (WSU-NHL cells [5]; Rituximab 0.1 μg/ml, +NK cells): 35%
percentage of dead cells, Mean (WSU-NHL cells [5]; [13]): 45%
percentage of dead cells, Mean (WSU-NHL cells [5]; [14]): 50%
percentage of dead cells, Mean (WSU-NHL cells [5]; [15]): 60%
percentage of dead cells, Mean (WSU-NHL cells [5]; Rituximab 1 μg/ml, +NK cells): 45%
percentage of dead cells, Mean (WSU-NHL cells [5]; [16]): 54%
percentage of dead cells, Mean (WSU-NHL cells [5]; [17]): 56%
percentage of dead cells, Mean (WSU-NHL cells [5]; [18]): 66%
percentage of dead cells, Mean (WSU-NHL cells [5]; Rituximab 10 μg/ml, +NK cells): 54%
percentage of dead cells, Mean (WSU-NHL cells [5]; [19]): 61%
percentage of dead cells, Mean (SU-DHL-8 cells [6]; [11]): 43%
percentage of dead cells, Mean (SU-DHL-8 cells [6]; [12]): 50%
percentage of dead cells, Mean (SU-DHL-8 cells [6]; Rituximab 0.1 μg/ml, +NK cells): 38%
percentage of dead cells, Mean (SU-DHL-8 cells [6]; [13]): 38%
percentage of dead cells, Mean (SU-DHL-8 cells [6]; [14]): 49%
percentage of dead cells, Mean (SU-DHL-8 cells [6]; [15]): 63%
percentage of dead cells, Mean (SU-DHL-8 cells [6]; Rituximab 1 μg/ml, +NK cells): 50%
percentage of dead cells, Mean (SU-DHL-8 cells [6]; [16]): 49%
percentage of dead cells, Mean (SU-DHL-8 cells [6]; [17]): 58%
percentage of dead cells, Mean (SU-DHL-8 cells [6]; [18]): 66%
percentage of dead cells, Mean (SU-DHL-8 cells [6]; Rituximab 10 μg/ml, +NK cells): 60%
percentage of dead cells, Mean (SU-DHL-8 cells [6]; [19]): 59%
